{"source": "patent US6005099A", "about": "“Glucosamine disaccharides, method for their preparation, pharmaceutical composition comprising same, and their use” (priority 1993, dated 1999)", "key": {"[1]": {"system": "macrophages of C57BL/6 mice", "test": "Nitric oxide (NO) production in supernatants of macrophages", "type": "cell-based", "procedure": "Bone marrow was collected from hip, femur and tibia of six week old male C57BL/6 mice.\nAfter 7 days the mature macrophages were collected and resuspended in Dulbecco modified medium comprising 5% foetal calf serum to a concentration of 7×10^6 cells per ml. This cell suspension was mixed 1:1, (v/v) with samples diluted in the same medium and used in the biological tests performed in microplates with 70,000 cells/well (incubation at 37° C. for 22 hours, 100% humidity and 8% CO2).\nNitric oxide (NO) is produced by macrophages in response to bacterial infection and in particular LPS. NO seems to have cytostatic and cytotoxic properties. NO is extremely reactive and rapidly converted by oxidation into nitrite and nitrate.\nThe nitrite formation was determined using the Griess test (addition of 1:1, (v/v) N-(1-naphthyl)ethylene diamine hydrochloride [1 g/l in water] and p-aminobenzenesulphonamide [10 g/l in 5% H3 PO4 ]). The nitrite concentration in supernatants of activated macrophages was calculated in comparison to NaNO2 standards."}, "[2]": {"system": "Limulus amoebocyte lysate (LAL)", "test": "Endotoxicity, LAL gelification test", "type": "biochemical, Limulus polyphemus", "settings": "ng LPS per ng product, n = 2-12", "procedure": "(§1) The endotoxicity and the biological activity of disaccharide A (example 1) and of disaccharide B (example 2) were determined and compared to that of lipopolysaccharide originating from Escherichia coli O111:B4 (Sigma, Product No. L3024), lipid A (Sigma, Product No. L5399; used as a starting material in example 4), and 3-O-deacylated lipid A originating from lipid A of Escherichia coli F583 (prepared as in the comparative example), but without purification by HPLC.\n(§2) The endotoxicity was determined in the Limulus amoebocyte lysate (LAL) test. This test is based on the observation that endotoxins induce coagulation of the hemolymph of Limulus polyphemus.\n(§3) In the gelification test serial dilutions of the compound to be tested were mixed with LAL 1:1, (v/v) (Haemachem Inc., sensitivity LAL 0.06 endotoxin units/ml), and the mixture was incubated for one hour at 37° C. Then gel formation was monitored by measuring the optical density at 405 nm. The last dilution which formed a gel was determined by inverting the reaction microplate. The endotoxin activity in the samples was determined by comparison with dilutions of a lipopolysaccharide standard (1 endotoxin unit=0.1 ng LPS).\n(§4) The results are expressed in table 3 as: ng LPS per ng product."}, "protease in LAL [3]": {"system": "protease in LAL", "test": "Endotoxicity, chromogenic LAL test", "type": "biochemical, Limulus polyphemus", "settings": "ng LPS per ng product, n = 1-10", "procedure": "as §1, §2\n(§5) The endotoxicity was also measured in the chromogenic test, in which the activation of a protease in LAL by LPS was measured using a chromogen (Ac-Ile-Glu-Ala-Arg-pNA; Bio Whittaker Kit No. 50-650U). The colour formation (liberation of pNA (p-nitroaniline)) was measured at 405 nm.\n(§6) Samples were pre-incubated at 37° C. during 10 minutes and subsequently chromogen-comprising LAL was added. The time required for reaching an optical density of 0.2 at 405 nm was measured. The endotoxin activity was calculated in comparison to a reference curve obtained for LPS standards.\nas §4"}, "[4]": {"system": "Limulus amoebocyte lysate (LAL)", "test": "Endotoxicity in the limulus amoebocyte lysate (LAL) test (gelification and chromogenic)", "type": "biochemical, Limulus polyphemus", "procedure": "as §1, §2, §3\nThe endotoxicity was also measured in the chromogenic test, in which the activation of a protease in LAL by LPS was measured using a chromogen (Ac-Ile-Glu-Ala-Arg-pNA; Bio Whittaker Kit No. 50-650U). […]"}, "protease in LAL [5]": {"system": "protease in LAL", "test": "Endotoxicity, chromogenic LAL test with 0.1 mg/ml bovine serum albumin", "type": "biochemical, Limulus polyphemus", "settings": "n=4 or 6", "procedure": "as §5, §6\nThe endotoxicity of the disaccharides E, F and G was determined using the chromogenic LAL test (see infra). However, instead of using 1 mg/ml bovine serum albumin, 0.1 mg/ml has been used. The results (n=4 or 6) were obtained in two series of experiments and are shown hereafter."}, "[6]": {"system": "murine peritoneal macrophages", "test": "Stimulation of nitrite production in murine peritoneal macrophages", "type": "cell-based", "settings": "quantity determined by HPLC absorption vs disaccharide A", "procedure": "The biological activity of the fractions was tested by the stimulation of nitrite production in murine peritoneal macrophages as described hereinbefore.\nThe quantity of each analogue in the stock solution was determined from the absorption on HPLC with reference to that of disaccharide A. The fractions show activities of the same order as disaccharide A (FIG. 8). […] The position of the acyloxyacyl, 2 versus 2', has only a minor influence on the activity.\nIn order to eliminate the possibility that activity was due to contamination of the samples by other substances such as LPS, disaccharides E, F, G and H were repurified on reversed-phase HPLC and the regions of the HPLC baseline just before and just after the peak were also collected and treated in the same way as the fractions containing the peaks of material. The activity of the peak fractions and the baseline fractions was tested. […] The stimulation of nitrite production is thus specifically associated with the lipid A analogues."}, "Solubility in water": {"test": "Solubility in water", "type": "physicochemical", "settings": "sodium salt"}}, "note": "“Also recorded” adds a separate entry of the source. Structures can show the parent of a compound that is named as a salt."}
{"smiles": "CCCCCCCCCCCCCC(=O)O[C@H](CCCCCCCCCCC)CC(=O)N[C@H]1[C@H](OC[C@H]2O[C@H](OP(=O)(O)O)[C@H](NC(=O)C[C@H](O)CCCCCCCCCCC)[C@@H](O)[C@@H]2O)O[C@H](CO)[C@@H](OP(=O)(O)O)[C@@H]1O", "note": "[disaccharide B, 2-Deoxy-6-O-[2-deoxy-2-[(R)-3-tetradecanoyloxytetradecanoylamino]-4-O-phosphono-β-D-glucopyranosyl]-2-[(R)-3-hydroxytetradecanoylamino]-α-D-glucopyranosyl dihydrogenphosphate]", "values": [{"measurement": "EC50", "setting": "[1]; Mus musculus, Macrophage, product concentration corresponding to 50% activity, 22 hours, 37° C.", "result": 0.05, "unit": "µg/mL"}, {"measurement": "minimal effective concentration", "setting": "[1]; Mus musculus, Macrophage, product concentration corresponding to induced NO activity, 22 hours, 37° C., read-out: NO production: Minimum activity (product concentration)", "result": 0.0005, "unit": "µg/mL"}, {"measurement": "NO activity at 50% in nmol of NO2- /ml", "setting": "[1]; extrapolated from the series dilution curve", "result": "5 nmol of NO2- /ml"}, {"measurement": "NO production, in words", "setting": "[1]; macrophages of C57BL/6 mice", "result": "induce NO production of the same order; also recorded: as strongly as lipid A and 3-O-deacylated lipid A"}, {"measurement": "NO production: Maximum activity (product concentration)", "setting": "[1]; product concentration corresponding to induced NO activity, 22 hours, 37° C.", "result": 16, "unit": "µg/mL"}, {"measurement": "Endotoxic activity in LAL, gelification", "setting": "[2]", "result": "0.004 ± 0.002", "unit": "ng/ng"}, {"measurement": "Endotoxic activity in LAL, chromogen", "setting": "protease in LAL [3]", "result": 0.0008, "unit": "ng/ng"}, {"measurement": "Endotoxicity in LAL, in words", "setting": "[4]", "result": "lowest endotoxicity"}]}
{"smiles": "CCCCCCCCCC[C@H](O)C(=O)O[C@H](CCCCCCCCC)CC(=O)N[C@H]1[C@H](OC[C@H]2O[C@H](OP(=O)(O)O)[C@H](NC(=O)C[C@H](O)CCCCCCCCC)[C@@H](O)[C@@H]2O)O[C@H](CO)[C@@H](OP(=O)(O)O)[C@@H]1O", "note": "[disaccharide E, 2-Deoxy-6-O-[2-deoxy-2-[(R)-3-[(S)-2-hydroxydodecanoyloxy]-dodecanoylamino]-4-O-phosphono-β-D-glucopyranosyl]-2-[(R)-3-hydroxydodecanoylamino]-α-D-glucopyranosyl dihydrogenphosphate]", "values": [{"measurement": "Endotoxic activity in LAL", "setting": "protease in LAL [5]", "result": "0.000005 ± 0.000002", "unit": "mg/mg"}]}
{"smiles": "CCCCCCCCCC[C@H](O)C(=O)O[C@H](CCCCCCCCC)CC(=O)N[C@H]1[C@@H](OP(=O)(O)O)O[C@H](CO[C@@H]2O[C@H](CO)[C@@H](OP(=O)(O)O)[C@H](O)[C@H]2NC(=O)C[C@H](O)CCCCCCCCC)[C@@H](O)[C@@H]1O", "note": "[disaccharide F, 2-Deoxy-6-O-[2-deoxy-2-[(R)-3-hydroxydodecanoylamino]-4-O-phosphono-β-D-glucopyranosyl]-2-[(R)-3-[(S)-2-hydroxydodecanoyloxy]-dodecanoylamino]-α-D-glucopyranosyl dihydrogenphosphate]", "values": [{"measurement": "Endotoxic activity in LAL", "setting": "protease in LAL [5]", "result": "0.000025 ± 0.000026", "unit": "mg/mg"}]}
{"smiles": "CCCCCCCCCCCC(=O)O[C@H](CCCCCCCCC)CC(=O)N[C@H]1[C@H](OC[C@H]2O[C@H](OP(=O)(O)O)[C@H](NC(=O)C[C@H](O)CCCCCCCCC)[C@@H](O)[C@@H]2O)O[C@H](CO)[C@@H](OP(=O)(O)O)[C@@H]1O", "note": "[disaccharide G, 2-Deoxy-6-O-[2-deoxy-2-[(R)-3-dodecanoyloxydodecanoylamino]-4-O-phosphono-β-D-glucopyranosyl]-2-[(R)-3-hydroxydodecanoylamino]-α-D-glucopyranosyl dihydrogenphosphate]", "values": [{"measurement": "Endotoxic activity in LAL", "setting": "protease in LAL [5]", "result": "0.00006 ± 0.00003", "unit": "mg/mg"}]}
{"smiles": "CCCCCCCCCCCC(=O)O[C@H](CCCCCCCCC)CC(=O)N[C@H]1[C@H](OC[C@H]2O[C@H](OP(=O)(O)O)[C@H](NC(=O)C[C@@H](CCCCCCCCC)OC(=O)[C@@H](O)CCCCCCCCCC)[C@@H](O)[C@@H]2O)O[C@H](CO)[C@@H](OP(=O)(O)O)[C@@H]1O", "note": "[disaccharide H, 2-Deoxy-6-O-[2-deoxy-2-[(R)-3-dodecanoyloxydodecanoylamino]-4-O-phosphono-β-D-glucopyranosyl]-2-[(R)-3-[(S)-2-hydroxydodecanoyloxy]-dodecanoylamino]-α-D-glucopyranosyl dihydrogenphosphate]", "values": [{"measurement": "Stimulation of nitrite production, in words", "setting": "[6]", "result": "most active"}]}
{"smiles": "CCCCCCCCCCCC(=O)O[C@H](CCCCCCCCCCC)CC(=O)N[C@H]1[C@H](OC[C@H]2O[C@H](OP(=O)(O)O)[C@H](NC(=O)C[C@H](O)CCCCCCCCCCC)[C@@H](O)[C@@H]2O)O[C@H](CO)[C@@H](OP(=O)(O)O)[C@@H]1O", "note": "[sodium salt]", "values": [{"measurement": "Solubility in water, in words", "setting": "Solubility in water", "result": "freely soluble in water"}, {"measurement": "solubility", "setting": "Solubility in water", "result": "≥ 100", "unit": "mg/mL"}]}
